# Measured values taken from patent US20250091911A1, “NANOFILTRATION SYSTEM AND METHOD INCLUDING PRETREATMENT WITH GREEN SORPTION MEDIA” (University of Central Florida Research Foundation, Inc., priority 2023, published 2025).
# What was measured:
# [1] = Crossflow nanofiltration of ZIPGEM-pretreated water; settings: for PFAS concentration, membrane permeates (MP): ZIPGEM-nanofiltration @ 30 h
# Procedure: The water samples were collected from the same site of the C-23 canal during both the dry and wet seasons. However, only wet season water samples were used in the experiment. The water samples were analyzed for both long-chain (PFOA and PFOS) and short-chain (Perfluorobutanoic acid [PFBA] and Perfluorobutanesulfonic acid [PFBS]) PFAS following the modified EPA 537.1 method (Shoemaker & Tettenhorst, 2020). Through this method, an aliquot of a 250 mL water sample containing analytes and internal standards is extracted via solid phase extraction. The extracted analytes and internal standards are then eluted with methanol and ammonium hydroxide in methanol solvent. Then the eluted samples are dried with nitrogen and reconstituted to 1 mL volume with a buffer solution. The samples are then injected into a C18 liquid chromatography column, and the PFAS compounds are separated by a gradient of pure methanol and 20 mM ammonium acetate. Finally, the eluted compounds are detected, and their concentrations are measured via tandem mass spectrometry. The method detection limits (MDLs) for PFBA, PFBS, PFOA, and PFOS were 0.5 ng·L^−1, 2 ng·L^−1, 0.5 ng·L^−1, and 1 ng·L^−1, respectively. The concentration of calcium ion (Ca^2+) was analyzed at Eurofins Flowers's Chemical Laboratories (Altamonte Springs, Florida) following EPA method 6010D using inductively coupled plasma optical emission spectroscopy (MDL=0.096 mg·L^−1). Total organic carbon (TOC) and dissolved organic carbon (DOC) were measured using a TOC analyzer following EPA method 415.3.
# A commercially available nanofiltration membrane (membrane ID: XN45) was used for the crossflow nanofiltration experiment. The membranes were acquired as flat sheets and cut into coupons of required sizes (active surface area of 42 cm^2) to fit into a membrane cell (CF042).
# A bench-scale crossflow filtration setup was used in these experimental methods. The experimental setup consisted of a feed tank, a centrifugal pump, three CF042 membrane cells connected to pressure gauges, check valves, and flowmeters. A recirculating chiller was used for regulating the temperature at 20° C. Three high-precision balances were used to measure the weight of the collected permeate and to calculate the flowrates. The scales were connected to a computer for data acquisition.
# Before each experimental run, the membrane cells and tubing were cleaned by running DI water as feed without placing any membrane coupons inside the cells. Then the membrane coupons were mounted into the cells firmly and compacted at 100 psi for at least 4 h using DI water. After that, 5 L of the effluents from the pretreatment media (i.e., the C-23 water samples that were run through the CPS and ZIPGEM) were taken as feedwater for each nanofiltration filtration experiment. The experiments were run for 24 h before collecting permeates and feed samples for analysis. The experiments were conducted at a constant flowrate of 1.0 L·min^−1, with a corresponding cross flow velocity of 0.18 m·s^−1. The transmembrane pressure was initially set to 110 psi at the beginning of the permeate collection by regulating inlet and retentate valves. However, the pressure changed over time as feed concentration increased during the permeate collection. The experiment was run in total recirculation mode, whereby both the retentate and permeate were recycled, except the time of permeate collection.
# The average removal efficiencies of each media pretreatment were calculated based on PFAS concentrations in the influents and effluents of triplicate columns, as disclosed in TABLE 5. […] The overall efficiency of the hybrid treatment was calculated by comparing the average concentrations of PFAS in the influents of the green sorption media pretreatment columns and the nanofiltration permeates, as disclosed in TABLE 6. […]
# [2] = Overall removal by CPS-nanofiltration water treatment system
# Text: Water samples collected from the C-23 canal were first fortified with PFOS and PFOA and then used as influents to the pretreatment column containing one of the two green sorption media. Note the water samples were not fortified with PFBA and PFBS. The green sorption media effluent served as the feedwater for the nanofiltration unit of the proposed water treatment system. The nanofiltration membrane unit without any green sorption media-based pretreatment served as the “control.” The integration of a green sorption media (CPS or ZIPGEM) with crossflow nanofiltration is herein referred to as a water treatment system, denoted as CPS-nanofiltration or ZIPGEM-nanofiltration. The CPS and ZIPGEM column influents and effluents and nanofiltration permeates were analyzed for both long-chain (PFOS and PFOA) and short-chain (PFBS and PFBA) PFAS. FIG. 3 presents the green sorption media-nanofiltration hybrid treatment scheme.
# The average removal efficiencies of each media pretreatment were calculated based on PFAS concentrations in the influents and effluents of triplicate columns, as disclosed in TABLE 5. […] The overall efficiency of the hybrid treatment was calculated by comparing the average concentrations of PFAS in the influents of the green sorption media pretreatment columns and the nanofiltration permeates, as disclosed in TABLE 6.
# where C0 is the concentration of PFAS in the column influent or nanofiltration feed in ng·L^−1, and where Ce is the concentration of PFAS in the column effluent or nanofiltration permeate in ng·L^−1. TABLE 7 summarizes the key findings of the green sorption media-based pretreatment and green sorption media-nanofiltration treatment, and these are explained in the subsequent subsection through an in-depth discussion and statistical analysis. It should be noted that PFOS concentration was slightly higher in the membrane permeates compared to the effluent of green sorption media pretreatment media, as disclosed in TABLE 5. The slight increase in PFOS concentration could be attributed to the filtration experimental setup that operated in a total recirculation mode. However, most of the differences were very close to the MDL for PFOS (1 ng·L^−1), which was already undetected in the green sorption media effluent
# [3] = cited from earlier work
# [4] = feed = ZIPGEM column 1 effluent
# [5] = feed = ZIPGEM column 2 effluent
# [6] = feed = ZIPGEM column 3 effluent
Structure (SMILES),"PFAS concentration, membrane permeates (MP) ([1]; Col 1) [ng/L]","PFAS concentration, membrane permeates (MP) ([1]; Col 2) [ng/L]","PFAS concentration, membrane permeates (MP) ([1]; Col 3) [ng/L]","nanofiltration membrane removal [1, 4] [%]","nanofiltration membrane removal [1, 5] [%]","nanofiltration membrane removal [1, 6] [%]",O = overall removal by water treatment system ([2]; column 1) [%],O = overall removal by water treatment system ([2]; column 2) [%],O = overall removal by water treatment system ([2]; column 3) [%],pKa [3]
"O=C(O)C(F)(F)C(F)(F)C(F)(F)F [PFBA, Perfluorobutanoic acid]",4.43,4.77,4.70,37,32,36,58,45,53,0.40
"O=S(=O)(O)C(F)(F)C(F)(F)C(F)(F)C(F)(F)F [PFBS, Perfluorobutanesulfonic acid]",4.67,4.23,5.10,23,32,36,41,38,52,0.14
"O=C(O)C(F)(F)C(F)(F)C(F)(F)C(F)(F)C(F)(F)C(F)(F)C(F)(F)F [PFOA, Perfluorooctanoic acid]",21.67,14.00,23.67,66,78,68,98,94,97,−0.20
"O=S(=O)(O)C(F)(F)C(F)(F)C(F)(F)C(F)(F)C(F)(F)C(F)(F)C(F)(F)C(F)(F)F [PFOS, Perfluorooctanesulfonic acid]",1.70,0.79,1.05,100,100,100,100,100,100,0.14
